We go through twelve molecules from patent publication US9725448B2, “Neprilysin inhibitors” (THERAVANCE BIOPHARMA R&D IP, LLC, priority 2011, dated 2017).

The assay deals with T1, human NEP (Homo sapiens, UniProt P08473).
T1 construct: purchased R&D Systems, Minneapolis, Minn; 1182-ZN
T1 sequence (P08473 52-750 limits assumed): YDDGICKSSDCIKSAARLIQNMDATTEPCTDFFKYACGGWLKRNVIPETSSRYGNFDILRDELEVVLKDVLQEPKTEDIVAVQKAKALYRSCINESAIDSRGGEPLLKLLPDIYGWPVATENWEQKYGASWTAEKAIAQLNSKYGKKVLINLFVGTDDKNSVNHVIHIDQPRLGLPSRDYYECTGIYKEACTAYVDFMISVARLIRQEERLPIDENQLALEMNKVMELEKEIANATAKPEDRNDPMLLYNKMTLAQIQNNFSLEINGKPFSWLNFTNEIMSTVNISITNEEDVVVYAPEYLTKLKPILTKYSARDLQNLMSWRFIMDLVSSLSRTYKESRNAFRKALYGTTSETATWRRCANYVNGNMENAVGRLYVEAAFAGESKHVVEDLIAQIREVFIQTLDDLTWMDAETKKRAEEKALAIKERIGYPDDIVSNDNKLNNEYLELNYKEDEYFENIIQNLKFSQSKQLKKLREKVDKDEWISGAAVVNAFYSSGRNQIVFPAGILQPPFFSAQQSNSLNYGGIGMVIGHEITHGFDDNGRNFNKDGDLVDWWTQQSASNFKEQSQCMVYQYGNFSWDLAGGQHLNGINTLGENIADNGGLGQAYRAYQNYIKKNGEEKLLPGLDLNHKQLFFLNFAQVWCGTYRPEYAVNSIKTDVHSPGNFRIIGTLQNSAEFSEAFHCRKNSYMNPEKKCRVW
Put plainly: In vitro enzyme inhibition assay at human NEP (fluorogenic peptide substrate). The class given is biochemical. The note with it: pKi values at human NEP (recombinant), given as ranges. The procedure:
The inhibitory activities of compounds at human and rat neprilysin (EC 3.4.24.11; NEP) and human angiotensin converting enzyme (ACE) were determined using in vitro assays as described below.
Recombinant human NEP and recombinant human ACE were obtained commercially (R&D Systems, Minneapolis, Minn., catalog numbers 1182-ZN and 929-ZN, respectively). The fluorogenic peptide substrate Mca-D-Arg-Arg-Leu-Dap-(Dnp)-OH (Medeiros et al. (1997) Braz. J. Med. Biol. Res. 30:1157-62; Anaspec, San Jose, Calif.) and Abz-Phe-Arg-Lys(Dnp)-Pro-OH (Araujo et al. (2000) Biochemistry 39:8519-8525; Bachem, Torrance, Calif.) were used in the NEP and ACE assays respectively.
The assays were performed in 384-well white opaque plates at 37° C. using the fluorogenic peptide substrates at a concentration of 10 μM in Assay Buffer (NEP: 50 mM HEPES, pH 7.5, 100 mM NaCl, 0.01% polyethylene glycol sorbitan monolaurate (Tween-20), […]; ACE: 50 mM HEPES, pH 7.5, 100 mM NaCl, 0.01% Tween-20, 1 μM ZnSO4).
Test compounds were assayed over the range of concentrations from 10 μM to 20 pM. Test compounds were added to the enzymes and incubated for 30 minute at 37° C. prior to initiating the reaction by the addition of substrate. Reactions were terminated after 20 minutes of incubation at 37° C. by the addition of glacial acetic acid to a final concentration of 3.6% (v/v).
Plates were read on a fluorometer with excitation and emission wavelengths set to 320 nm and 405 nm, respectively. Inhibition constants were obtained by nonlinear regression of the data using the equation (GraphPad Software, Inc., San Diego, Calif.): ν=ν0/[1+(I/K′)] where ν is the reaction rate, ν0 is the uninhibited reaction rate, I is the inhibitor concentration and K′ is the apparent inhibition constant.
Compounds of the invention were tested in this assay and found to have pKi values at human NEP as follows.
For `Cc1ccc(Cl)cc1-c1ccc(CN(C[C@@](C)(O)C(=O)O)NC(=O)c2cc(O)no2)cc1` [Example 7-12, (R)-3-[N-(5′-Chloro-2′-methyl-biphenyl-4-ylmethyl)-N′-(3-hydroxy-isoxazole-5-carbonyl)-hydrazino]-2-hydroxy-2-methyl-propionic acid], the inhibition constant (Ki) is at most 1 nM.
The figure for `C[C@@](O)(C[C@@H](Cc1ccc(-c2ccccc2)cc1)NC(=O)c1cnn[nH]1)C(=O)O` [Example 1B, (2R,4R)-5-Biphenyl-4-yl-2-hydroxy-2-methyl-4-[(3H-[1,2,3]triazole-4-carbonyl)-amino]-pentanoic acid] is 1.26 to 10 nM; for `C[C@](O)(C[C@@H](Cc1ccc(-c2ccccc2)cc1)NC(=O)c1cnc(O)nc1)C(=O)O` [Example 2-10, (2S,4R)-5-Biphenyl-4-yl-2-hydroxy-4-[(2-hydroxy-pyrimidine-5-carbonyl)-amino]-2-methyl-pentanoic acid] it is 1.26 to 10 nM; for `CC(O)(C[C@@H](Cc1ccc(-c2ccccc2)cc1)NC(=O)c1cc(O)no1)C(=O)O` (stereo partly drawn) [Example 2-7, (R)-5-Biphenyl-4-yl-2-hydroxy-4-[(3-hydroxy-isoxazole-5-carbonyl)-amino]-2-methyl-pentanoic acid] it is at most 1 nM.
With `CC(O)(C[C@@H](Cc1ccc(-c2ccccc2)cc1)NC(=O)c1cc(O)n[nH]1)C(=O)O` (stereo partly drawn) [Example 2-12, (R)-5-Biphenyl-4-yl-2-hydroxy-4-[(5-hydroxy-2H-pyrazole-3-carbonyl)-amino]-2-methyl-pentanoic acid] the figure was 1.26 to 10 nM; with `COc1cc(C(=O)NN(Cc2ccc(-c3ccccc3)cc2)CC(C)(O)C(=O)O)on1` (stereo not drawn) [Example 4-3, 3-[N-Biphenyl-4-ylmethyl-N′-(3-methoxy-isoxazole-5-carbonyl)-hydrazino]-2-hydroxy-2-methyl-propionic acid], 126 to 1000 nM; with `C[C@@](O)(CN(Cc1ccc(-c2cccc(Cl)c2)cc1)NC(=O)c1cc(C(=O)O)n[nH]1)C(=O)O` [Example 7-10, 5-[N′—((R)-2-Carboxy-2-hydroxy-propyl)-N′-(3′-chlorobiphenyl-4-ylmethyl)-hydrazinocarbonyl]-1H-pyrazole-3-carboxylic acid], at most 1 nM.
With `CC(O)(C[C@@H](Cc1ccc(-c2ccccc2)cc1)NC(=O)c1cc(F)c2nn[nH]c2c1)C(=O)O` (stereo partly drawn) [Example 2-4, (R)-5-Biphenyl-4-yl-4-[(7-fluoro-3H-benzotriazole-5-carbonyl)-amino]-2-hydroxy-2-methyl-pentanoic acid] the figure was 1.26 to 10 nM; with `O=C(N[C@H](Cc1ccc(-c2ccccc2)cc1)CC1(C(=O)O)CC1)c1nc(O)n[nH]1` [Example 11-3, 1-{(R)-3-Biphenyl-4-yl-2-[(5-hydroxy-2H-[1,2,4]triazole-3-carbonyl)-amino]-propyl}-cyclopropanecarboxylic acid], 1.26 to 10 nM.
For `C[C@@](O)(CN(Cc1ccc(-c2cccc(Cl)c2)cc1)NC(=O)c1cc(-c2cnccn2)n[nH]1)C(=O)O` [Example 7-8, (R)-3-[N-(3′-Chlorobiphenyl-4-ylmethyl)-N′-(5-pyrazin-2-yl-2H-pyrazole-3-carbonyl)-hydrazino]-2-hydroxy-2-methyl-propionic acid], the Ki is 12.6 to 100 nM.
With `C[C@@](O)(CN(Cc1ccc(-c2cccc(Cl)c2)cc1)NC(=O)c1cnc(O)nc1)C(=O)O` [Example 7-25, (R)-3-[N-(3′-Chlorobiphenyl-4-ylmethyl)-N′-(2-hydroxy-pyrimidine-5-carbonyl)-hydrazino]-2-hydroxy-2-methyl-propionic acid] the figure was 1.26 to 10 nM; with `C[C@@](O)(CN(Cc1ccc(-c2ccccc2O)cc1)NC(=O)c1cc(O)no1)C(=O)O` [Example 7-16, (R)-2-Hydroxy-3-[N-(2′-hydroxy-biphenyl-4-ylmethyl)-N′-(3-hydroxy-isoxazole-5-carbonyl)-hydrazino]-2-methyl-propionic acid], 1.26 to 10 nM.
